These results are taken from patent US10065990B2, “Cyclic peptide compound, and preparation method, pharmaceutical composition and use thereof” (HANGZHOU GUANYU BIO-MEDICAL CO., LTD, priority 2013, dated 2018).

Where two headings read alike, the source gives them in different places.

One assay has as its target T1, HDAC7 (Homo sapiens, UniProt Q8WUI4).
T1 sequence (Q8WUI4 1-952): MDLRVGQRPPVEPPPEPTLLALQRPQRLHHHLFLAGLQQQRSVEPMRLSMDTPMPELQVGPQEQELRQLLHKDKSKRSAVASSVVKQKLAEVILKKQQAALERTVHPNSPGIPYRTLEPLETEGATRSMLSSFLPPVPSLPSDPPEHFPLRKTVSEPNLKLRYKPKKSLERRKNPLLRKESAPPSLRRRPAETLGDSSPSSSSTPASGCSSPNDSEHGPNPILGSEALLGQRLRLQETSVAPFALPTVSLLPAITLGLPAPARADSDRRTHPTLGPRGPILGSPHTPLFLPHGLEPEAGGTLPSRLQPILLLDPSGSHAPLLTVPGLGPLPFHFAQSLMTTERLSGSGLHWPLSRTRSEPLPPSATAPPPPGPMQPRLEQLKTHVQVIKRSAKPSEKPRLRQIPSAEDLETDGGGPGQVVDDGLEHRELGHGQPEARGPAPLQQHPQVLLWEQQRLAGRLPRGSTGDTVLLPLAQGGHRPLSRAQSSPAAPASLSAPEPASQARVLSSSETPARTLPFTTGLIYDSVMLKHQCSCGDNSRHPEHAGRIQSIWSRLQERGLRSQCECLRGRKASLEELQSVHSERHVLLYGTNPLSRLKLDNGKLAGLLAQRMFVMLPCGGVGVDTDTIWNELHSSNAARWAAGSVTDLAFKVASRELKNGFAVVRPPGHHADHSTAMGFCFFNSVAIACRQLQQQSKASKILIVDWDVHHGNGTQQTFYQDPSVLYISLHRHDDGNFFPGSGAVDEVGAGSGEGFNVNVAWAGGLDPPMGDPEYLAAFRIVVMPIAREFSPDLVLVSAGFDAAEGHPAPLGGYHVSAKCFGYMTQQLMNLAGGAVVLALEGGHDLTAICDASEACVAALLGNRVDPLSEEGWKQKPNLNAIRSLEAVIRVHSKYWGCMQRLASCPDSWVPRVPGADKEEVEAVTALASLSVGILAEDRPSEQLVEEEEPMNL
In words: HDAC biochemical activity measurement (fluorescent substrate deacetylation). As to conditions: HDAC7; 37° C. 30 minutes.

The subject of assay [1] is DU145 (human prostate cancer cells). Briefly: MTT cancer cell growth inhibition. As to conditions: MTT, 72 hours incubation, read-out: GI50 Du1. The assay is classed as cell-based. The method in brief: (§1)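 Using a 72 h MTT format, triplicate wells of 1500 cells received compound concentrations from 10^−5 to 10^−10 M. Formazan was read at 570 nm after DMSO dissolution, and GI50 was derived from viability.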

For assay [2], the system named is MOLT-4 (human acute lymphoblastic leukemia cells). In words: MTT cancer cell growth inhibition. Conditions: MTT, 72 hours incubation, read-out: GI50 Mol. The assay is classed as cell-based. The method in brief: as §1
For assay [3], the system named is BGC-823 (human gastric cancer cells). Briefly: MTT cancer cell growth inhibition. The assay is classed as cell-based. Conditions: MTT, 72 hours incubation, read-out: GI50 BG. The method in brief:
as §1

For assay [4], the system named is HT1080 (human fibrosarcoma cells). Briefly: MTT cancer cell growth inhibition. The assay is classed as cell-based. Conditions: MTT, 72 hours incubation, read-out: GI50 HT1. The method in brief:
as §1

Assay [5] deals with MCF-7 (human breast cancer cells). Briefly: MTT cancer cell growth inhibition. The assay is classed as cell-based. As to conditions: 72 hours incubation, read-out: GI50 MCF. The gist of the method: as §1
The test system of assay [6] is Bel-7402 (human hepatoma cells). In words: MTT cancer cell growth inhibition. The assay is classed as cell-based. Conditions: MTT, 72 hours incubation, Bel-7402 cells; read-out: GI50 Bel-7402. The gist of the method: as §1
For assay [7], the system named is U937 (human leukemia cells). In words: MTT cancer cell growth inhibition. The assay is classed as cell-based. Conditions: MTT, 72 hours incubation, read-out: GI50 U93. The method in brief:
as §1

Assay [8] relates to HCC827 (human non-small cell lung cancer cells). Briefly: MTT cancer cell growth inhibition. It is filed as cell-based. Conditions: MTT, 72 hours incubation, HCC827 cells; read-out: GI50 HCC827. The gist of the method:
as §1

For assay [9], the system named is Huh-7 (human hepatoma cells). In words: MTT cancer cell growth inhibition. It is filed as cell-based. As to conditions: MTT, 72 hours incubation, Huh-7 cells; read-out: GI50 Huh-7. The gist of the method:
as §1

Assay [10] concerns PANC-1 (Pac-1, human pancreatic cancer cells). In words: MTT cancer cell growth inhibition. Conditions: MTT, 72 hours incubation, read-out: GI50 PAN. The assay is classed as cell-based. The gist of the method: as §1
The subject of assay [11] is Hela (human cervical cancer cells). In words: MTT cancer cell growth inhibition. As to conditions: MTT, 72 hours incubation, read-out: GI50 Hela. The assay is classed as cell-based. The method in brief:
as §1

Assay [12] deals with K562 (human leukemia cells). Briefly: MTT cancer cell growth inhibition. It is filed as cell-based. Conditions: MTT, 72 hours incubation, K562 cells; read-out: GI50 K562. The method in brief:
as §1

Assay [13] has as its system lncap (prostate cancer cells). Briefly: MTT cancer cell growth inhibition. The assay is classed as cell-based. As to conditions: MTT, 72 hours incubation, read-out: GI50 lnca. The method in brief: as §1
For assay [14], the system named is H1975 (non-small cell lung adenocarcinoma). In words: MTT cancer cell growth inhibition. The assay is classed as cell-based. Conditions: MTT, 72 hours incubation, H1975 cells; read-out: GI50 H1975. The method in brief: as §1
Assay [15] relates to MDA-MB-231 (breast cancer cells). Briefly: MTT cancer cell growth inhibition. Conditions: read-out: GI50 MDA-MB-231; MTT, 72 hours incubation, MDA-MB-231 cells. It is filed as cell-based. The method in brief: as §1
The subject of assay [16] is KBM5-T315I (human chronic myelogenous leukemia). In words: MTT cancer cell growth inhibition. It is filed as cell-based. Conditions: MTT, 72 hours incubation, KBM5-T315I cells; read-out: GI50 KBM5-T315I. The method in brief: as §1
The test system of assay [17] is KBM-5 (human chronic myelogenous leukemia). Briefly: MTT cancer cell growth inhibition. It is filed as cell-based. As to conditions: MTT, 72 hours incubation, KBM-5 cells; read-out: GI50 KBM-5. The method in brief:
as §1

Assay [18] deals with A549 (human lung cancer cells). Briefly: MTT cancer cell growth inhibition. The assay is classed as cell-based. Conditions: MTT, 72 hours incubation, read-out: GI50 A54. The gist of the method:
as §1

Assay [19] has as its system N-87 (human gastric cancer cells). In words: MTT cancer cell growth inhibition. As to conditions: MTT, 72 hours incubation, N-87 cells; read-out: GI50 N-87. The assay is classed as cell-based. The gist of the method: as §1
Assay [20] deals with SGC-7901 (human gastric cancer cells). In words: MTT cancer cell growth inhibition. The assay is classed as cell-based. As to conditions: MTT, 72 hours incubation, SGC-7901 cells; read-out: GI50 SGC-7901. The gist of the method:
as §1

For a further assay, the target named is T2, HDAC11 (Homo sapiens, UniProt Q96DB2).
T2 sequence (Q96DB2 1-347): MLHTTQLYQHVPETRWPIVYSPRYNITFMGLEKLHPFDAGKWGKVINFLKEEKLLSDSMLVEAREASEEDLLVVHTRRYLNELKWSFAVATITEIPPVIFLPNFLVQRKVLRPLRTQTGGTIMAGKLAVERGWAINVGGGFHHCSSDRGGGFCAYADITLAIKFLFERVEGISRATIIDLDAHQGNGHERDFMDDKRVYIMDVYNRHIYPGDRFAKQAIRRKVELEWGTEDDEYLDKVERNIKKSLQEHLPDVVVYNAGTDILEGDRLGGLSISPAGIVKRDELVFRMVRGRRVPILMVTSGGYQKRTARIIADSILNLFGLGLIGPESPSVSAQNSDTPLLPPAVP
In words: HDAC biochemical activity measurement (fluorescent substrate deacetylation). Conditions: read-out: IC50 HDAC11; HDAC11; 37° C. 30 minutes.

In another assay the target is HDAC2 (Homo sapiens, UniProt Q92769). The description is as above. As to conditions: 37° C. 30 minutes.
Sequence of HDAC2 (Q92769 whole entry, species assumed): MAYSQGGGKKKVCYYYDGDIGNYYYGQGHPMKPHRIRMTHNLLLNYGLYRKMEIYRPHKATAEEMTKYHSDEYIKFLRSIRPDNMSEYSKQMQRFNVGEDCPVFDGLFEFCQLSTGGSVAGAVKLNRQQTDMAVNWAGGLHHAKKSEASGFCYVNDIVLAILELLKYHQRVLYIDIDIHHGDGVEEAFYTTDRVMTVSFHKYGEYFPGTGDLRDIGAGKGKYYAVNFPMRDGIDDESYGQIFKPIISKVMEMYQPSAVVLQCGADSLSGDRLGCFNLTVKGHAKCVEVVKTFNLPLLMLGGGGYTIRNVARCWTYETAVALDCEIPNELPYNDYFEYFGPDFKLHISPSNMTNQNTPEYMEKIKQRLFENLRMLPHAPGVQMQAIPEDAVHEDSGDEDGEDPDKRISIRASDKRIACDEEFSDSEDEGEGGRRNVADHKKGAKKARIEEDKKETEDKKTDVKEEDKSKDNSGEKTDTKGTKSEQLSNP
For the next assay, the target named is T3, HDAC8 (Homo sapiens, UniProt Q9BY41).
T3 sequence (Q9BY41 1-377): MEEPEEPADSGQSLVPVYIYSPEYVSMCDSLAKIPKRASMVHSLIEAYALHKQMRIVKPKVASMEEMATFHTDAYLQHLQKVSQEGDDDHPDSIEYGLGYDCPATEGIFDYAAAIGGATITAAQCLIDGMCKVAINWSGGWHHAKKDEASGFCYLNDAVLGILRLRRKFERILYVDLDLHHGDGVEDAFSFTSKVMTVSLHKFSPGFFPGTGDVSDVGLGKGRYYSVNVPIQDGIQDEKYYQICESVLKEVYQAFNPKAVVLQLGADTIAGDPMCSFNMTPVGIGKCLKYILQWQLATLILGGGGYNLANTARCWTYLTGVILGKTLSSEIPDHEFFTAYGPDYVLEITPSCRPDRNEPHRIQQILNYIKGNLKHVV
The assay is described as above. Conditions: 37° C. 30 minutes.

The next assay addresses HDAC1 (Homo sapiens, UniProt Q13547). The assay is described as above.
Another assay addresses HDAC3 (Homo sapiens, UniProt O15379). The assay is described as above. As to conditions: read-out: IC50 HDAC3; HDAC3; 37° C. 30 minutes.
Setting [21] is: HDAC1, 37° C. 30 minutes, read-out: IC50 HDAC1.

The term GI50 denotes the concentration at which growth is held to half of that of the control. By IC50 is commonly meant the midpoint of a concentration-inhibition curve.
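For IC50 HDAC1 in this document: fluorogenic acetyl-lysine substrate (20 µM) deacetylated by HDAC1, then developer releases fluorophore read at 360 nm excitation and 460 nm emission, inhibitor incubated 30 min at 37 °C.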
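For IC50 HDAC1, C (six-membered ring with substituents) in this document: fluorogenic acetyl-lysine substrate (20 µM) deacetylated by HDAC1, then developer releases fluorophore read at 360 nm excitation and 460 nm emission, inhibitor incubated 30 min at 37 °C.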
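For IC50 HDAC7 in this document: fluorogenic deacetylation assay using acetyl-lysine substrate at 20 µM, enzyme and compound incubated 30 min at 37 °C, then developer added, fluorescence read at 360/460 nm.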

Sequence of HDAC1 (Q13547 whole entry, species assumed): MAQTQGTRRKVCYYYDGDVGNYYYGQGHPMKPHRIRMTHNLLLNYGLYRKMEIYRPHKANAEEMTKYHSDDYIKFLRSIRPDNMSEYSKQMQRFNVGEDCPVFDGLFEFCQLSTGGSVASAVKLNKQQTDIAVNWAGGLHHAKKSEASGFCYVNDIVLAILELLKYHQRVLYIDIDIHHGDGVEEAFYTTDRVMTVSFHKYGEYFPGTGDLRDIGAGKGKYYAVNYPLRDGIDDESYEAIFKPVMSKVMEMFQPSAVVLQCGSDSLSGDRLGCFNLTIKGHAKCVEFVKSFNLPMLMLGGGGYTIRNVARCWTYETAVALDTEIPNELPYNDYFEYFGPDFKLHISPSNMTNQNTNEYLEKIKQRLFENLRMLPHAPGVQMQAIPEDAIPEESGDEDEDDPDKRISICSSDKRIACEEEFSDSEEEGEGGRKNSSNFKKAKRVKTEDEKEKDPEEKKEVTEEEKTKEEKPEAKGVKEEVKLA
Sequence of HDAC3 (O15379 whole entry, species assumed): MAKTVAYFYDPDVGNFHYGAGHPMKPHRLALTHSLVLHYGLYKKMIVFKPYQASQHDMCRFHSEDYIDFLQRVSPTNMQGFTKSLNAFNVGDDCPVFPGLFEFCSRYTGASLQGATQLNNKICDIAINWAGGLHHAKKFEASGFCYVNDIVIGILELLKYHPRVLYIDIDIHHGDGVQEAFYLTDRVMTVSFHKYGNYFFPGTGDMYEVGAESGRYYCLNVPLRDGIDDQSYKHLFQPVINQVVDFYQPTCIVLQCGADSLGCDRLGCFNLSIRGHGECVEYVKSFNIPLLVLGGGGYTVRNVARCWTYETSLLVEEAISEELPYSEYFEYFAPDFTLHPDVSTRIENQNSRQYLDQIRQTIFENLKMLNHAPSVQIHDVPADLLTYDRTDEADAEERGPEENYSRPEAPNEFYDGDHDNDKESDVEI
Sequence of HDAC3 (Q9Y618 395-489 partner limits assumed, species assumed): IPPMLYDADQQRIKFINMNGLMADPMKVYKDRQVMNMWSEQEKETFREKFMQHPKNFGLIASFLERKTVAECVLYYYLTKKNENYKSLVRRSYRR
Procedure for HDAC11: (§2) The chemical activity of the compound is determined according to the degree of deacetylation inhibition of the HDAC enzyme. This experiment measured the degree of deacetylation related to tumor proliferation and metastasis of HDAC1, HDAC2, HDAC3, HDAC8, HDAC11 five subtypes HDAC enzymes. After the substrate containing an acetylated lysine side chain and HDAC enzyme are labeled with a fluorescent label, the fluorescent substrate is de acetyl. The fluorescent labeled substrate is cleaved by the enzyme, and the fluorescent substance is released, which generates 460 nm emission light under the excitation of 360 nm light.
(§3) HDAC substrate was diluted with reaction buffer to 200M (reaction concentration of 20M), the HDAC enzyme was diluted to the appropriate concentration, then added different concentrations of the test compounds and acted at 37° C. 30 minutes, and then added the same volume of 2-times concentration substrate developing solution (developer), incubated at room temperature for 15 minutes.
Procedure for HDAC2: as §2, §3

Turning to `C/C=C1\NC(=O)c2nc(ccc2SC)CNC(=O)C[C@@H](/C=C/CCSC(C)=O)OC(=O)[C@H](C)NC1=O` [Compound 213], the “IC50 HDAC7” value against HDAC7 is “no activity”. The concentration for 50% growth inhibition (GI50) in assay [1] (DU145 cells) came out at 0.02 µM; in [2] (MOLT-4 cells), 0.04 µM; in [3] (BGC-823 cells) it was 0.03 µM; in assay [4] (HT1080 cells), 0.02 µM; in assay [5] (MCF-7 cells), 0.09 µM; in assay [6], 0.053 µM. For the same compound, the concentration for 50% growth inhibition (GI50) stood at 0.07 µM in assay [7] (U937 cells); 0.028 µM in assay [8]; 0.035 µM in assay [9]; 0.08 µM in [10] (PANC-1 cells); 0.05 µM in assay [11] (Hela cells); 0.028 µM in [12]. In addition, the GI50 in assay [13] (lncap cells) was determined as 0.07 µM; in assay [14], 0.076 µM; in assay [15], 0.037 µM; in assay [16], 0.054 µM; in [17], 0.078 µM; in [18] (A549 cells), 0.07 µM. Also, the GI50 was found to be 0.042 µM in [19] and 0.058 µM in [20]. The IC50 at HDAC11 came to 0.087 µM; against HDAC2 it was 0.034 µM.
Consider `C/C=C1\NC(=O)c2cc(F)cc(n2)CNC(=O)C[C@@H](/C=C/CCSC(C)=O)OC(=O)[C@H](C(C)C)NC1=O` [Compound 49], for which the GI50 worked out at 0.01 µM in [1]; 0.02 µM in [2]; 0.07 µM in assay [3]; 0.07 µM in assay [4]; 0.05 µM in [5]; 0.03 µM in assay [7]. Moreover, the GI50 in assay [10] was determined as 0.07 µM; in assay [11], 0.08 µM; in [13] it was 0.02 µM; in assay [18], 0.06 µM. Moreover, the IC50 was 0.073 µM at HDAC11; 0.046 µM against HDAC2; 0.038 µM on HDAC8; 0.016 µM at HDAC1 (setting [21]); 0.016 µM at HDAC1 (Table 3, column C, read-out: IC50 HDAC1, C (six-membered ring with substituents)); 0.048 µM at HDAC3.
For the compound `C/C=C1\NC(=O)c2ccc(F)c(n2)CNC(=O)C[C@@H](/C=C/CCSC=O)OC(=O)[C@H](C(C)C)NC1=O` [Example 53], the “IC50 HDAC7” value at HDAC7 is “no activity”. In addition, the IC50 at HDAC11 is 0.105 µM; on HDAC2 it was 0.043 µM; on HDAC8, 0.026 µM; on HDAC1 (setting [21]), 0.084 µM; at HDAC3 it was 0.029 µM.
On to `C/C=C1\NC(=O)c2ccc(SC)c(n2)CNC(=O)C[C@@H](/C=C/CCSC(C)=O)OC(=O)[C@H](C)NC1=O` [Compound 215], for which the “IC50 HDAC7” value against HDAC7 was “no activity”. Moreover, the GI50 is 0.03 µM in assay [1] (DU145 cells); 0.07 µM in assay [2] (MOLT-4 cells); 0.04 µM in assay [3] (BGC-823 cells); 0.02 µM in assay [4] (HT1080 cells); 0.03 µM in assay [5] (MCF-7 cells); 0.019 µM in assay [6]. Moreover, the GI50 in [7] (U937 cells) was 0.09 µM; in assay [8], 0.015 µM; in assay [9] it was 0.065 µM; in assay [10] (PANC-1 cells), 0.04 µM; in assay [11] (Hela cells) it was 0.02 µM; in [12], 0.048 µM. The GI50 in assay [13] (lncap cells) was determined as 0.1 µM; in assay [14] it was 0.037 µM; in assay [15] it was 0.047 µM; in [16], 0.042 µM; in assay [17], 0.025 µM; in assay [18] (A549 cells), 0.05 µM. For the same compound, the GI50 came out at 0.017 µM in assay [19] and 0.048 µM in assay [20]. Besides, the 50% inhibitory concentration (IC50) at HDAC1 (setting [21]) came to 0.066 µM.
